In patent US12552800B2, “Compounds for diagnosis” (AC IMMUNE SA, priority 2020, dated 2026):
“Also recorded” adds a separate entry of the source. Like-named read-outs stand apart in the source and are kept apart here.

Assays:
[1] = molecular target: T1, PD brain-derived a-syn aggregates (Homo sapiens, UniProt P37840); test: Saturation binding of Example-1 [^3H-1] by micro-radiobinding; settings: head-to-head with [3H]-a-syn-Ref
T1 construct: from tissue; host or cells: human PD donor brain, sarkosyl-insoluble 100,000 x g pellet
Procedure: PD brain-derived a-syn aggregates were spotted onto microarray slides. The slides were incubated with Example-1 [^3H-1] or [3H]-a-syn-Ref at increasing concentrations in the range of 300 pM to 150 nM. After incubation, slides were washed and exposed to a phosphor storage screen (GE healthcare, BAS-IP TR 2025). Following exposure, phosphor storage screens were scanned with a laser imaging system (Typhoon FLA 7000) to readout the signal from the radiobinding experiments described above. Quantification of the signal was performed using the ImageJ software package.

[2] = molecular target: T2, a-syn pathology (Homo sapiens, UniProt P37840); test: Autoradiography of Example-1 [^3H-1] in brain sections from PD, PDD, MSA, LBV and NDC donors; format: binding; settings: 10 nM
T2 construct: performed on frozen human brain sections from different a-synucleinopathy cases; from tissue; host or cells: frozen human brain sections (PD, PDD, MSA, DLB, LBV; NDC as controls)
Procedure: (§1) Frozen human brain sections from one PD case, two PDD cases, two MSA cases, one LBV case and three non-demented control (NDC) cases were first briefly fixed for 15 minutes at 4° C. with 4% paraformaldehyde (Sigma, 252549) and washed three times for five minutes with PBS (Dulbecco's phosphate buffered saline, Sigma) at RT. All slides were then equilibrated for 20 minutes in 50 mM Tris-HCl pH 7.4 buffer prior to use in the experiment. Each brain section was incubated with a fixed concentration (10 nM) of tritiated example compound 1 (Example-1 [^3H-1]) in Tris-HCl buffer for two hours at RT (Total binding, ‘Total’). […] The slides were washed and then exposed and scanned in a real-time autoradiography system (BeaQuant instrument, ai4R).

[3] = molecular target: T3, TAR DNA-binding protein 43 (TDP-43) aggregates (Homo sapiens, UniProt Q13148); test: Micro-autoradiography of Example-1 [^3H-1] on FTLD-TDP type C tissue; settings: FTLD-TDP Type C brain tissue
T3 construct: present in Frontotemporal Lobar Degeneration TDP (FTLD-TDP) Type C brain tissue; from tissue; host or cells: FTLD-TDP type C brain tissue sections
T3 sequence (Q13148 whole entry): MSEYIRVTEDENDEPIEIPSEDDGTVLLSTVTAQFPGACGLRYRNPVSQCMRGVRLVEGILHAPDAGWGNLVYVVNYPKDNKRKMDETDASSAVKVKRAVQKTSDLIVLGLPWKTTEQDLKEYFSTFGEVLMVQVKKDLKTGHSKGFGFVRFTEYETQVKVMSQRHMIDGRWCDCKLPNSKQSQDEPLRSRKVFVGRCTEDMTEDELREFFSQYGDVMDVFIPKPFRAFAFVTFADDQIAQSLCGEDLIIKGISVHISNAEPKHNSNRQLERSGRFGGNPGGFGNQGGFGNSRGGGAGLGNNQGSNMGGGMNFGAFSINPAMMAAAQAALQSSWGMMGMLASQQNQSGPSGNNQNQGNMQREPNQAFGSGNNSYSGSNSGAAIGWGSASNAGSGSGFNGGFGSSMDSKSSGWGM
Procedure: (§2) The protocol was adapted from Marquie et al., 2015. Sections were incubated with tritiated example compound 1 (Example-1 [3H-1]) or a reference Tau ligand ([3H]-Tau-Ref at 60 nM for one hour at room temperature (RT). Sections were then washed as follows: One time in ice-cold 50 mM Tris-HCl pH 7.4 buffer for one minute, two times in 70% ice-cold ethanol for one minute, one time in ice-cold 50 mM Tris-HCl pH 7.4 buffer for one minute and finally rinsed briefly in ice-cold distilled water. Sections were subsequently dried and then exposed to Ilford Nuclear Emulsion Type K5 (Agar Scientific, AGP9281) in a light-proof slide storage box. After five days, the sections were developed by immersing them successively in the following solutions: 1.) Ilford Phenisol Developer (1:5 dilution in H2O, Agar Scientific, AGP9106), 2.) Ilfostop solution (1:20 dilution in H2O, Agar Scientific, AGP9104), 3.) Ilford Hypam Fixer (1:5 dilution in H2O, Agar Scientific, AGP9183) and finally rinsed with H2O. […]

[4] = molecular target: T4, pathological a-synuclein aggregates (Homo sapiens, UniProt P37840); test: Autoradiography of Example-1 [^3H-1] in brain sections from PD, PDD and NDC donors; format: binding; set-up: Frozen human brain sections from one familial PD case; from tissue; host or cells: frozen human brain sections: familial PD (SNCA G51D), PDD or idiopathic PD, MSA, NDC controls; settings: PDD brain tissue, autoradiography
Procedure: (§3) Frozen human brain sections from one familial PD case (a-synuclein [SNCA] gene G51 D missense mutation), labelled as SNCA (G51 D), one PDD case and two non-demented control (NDC) cases were first briefly fixed for 15 minutes at 4° C. with 4% paraformaldehyde (Sigma, 252549) and washed three times for five minutes with PBS (Dulbecco's phosphate buffered saline, Sigma) at RT. All slides were then equilibrated for 20 minutes in 50 mM Tris-HCl pH 7.4 buffer prior to use in the experiment. Each brain section was incubated with a fixed concentration (10 nM) of tritiated example compound 1 (Example-1 [^3H-1]) or a reference a-syn ligand ([3H]-a-syn-Ref), or increasing concentrations of Example-1 [^3H-1] in the range of 1.25 nM to 80 nM of tritiated compound in Tris-HCl buffer for two hours at RT (Total binding, ‘−’). To determine non-specific (NS) binding Example-1 [^3H-1] or [3H]-a-syn-Ref was mixed with 1 μM of non-radiolabelled compound (Example 1 or a-syn-Ref respectively, self-block, ‘+’). The slides were washed and placed under Phosphor imaging screens (GE healthcare, BAS-IP TR 2025) in imaging cassettes. Imaging screens were scanned using a laser imaging system (Typhoon, FLA 7000) and resulting images were analyzed using the ImageJ software package.

[5] = molecular target: T5, pathological a-synuclein aggregates (Homo sapiens, UniProt P37840, G51D); test: as above; format: binding; settings: Genetic PD (SNCA (G51D)) brain tissue, autoradiography
T5 construct: Frozen human brain sections from one familial PD case; from tissue; host or cells: frozen human brain sections: familial PD (SNCA G51D), PDD or idiopathic PD, MSA, NDC controls
Procedure: as §3

[6] = molecular target: T4, pathological a-synuclein aggregates; test: as above; format: binding
Procedure: as §3

[7] = molecular target: T6, a-syn aggregates (Lewy bodies and Lewy neurites) (Homo sapiens, UniProt P37840); test: High resolution micro-autoradiography of Example-1 [^3H-1] in a-synucleinopathy tissues; format: binding; settings: 60 nM; PD, PDD, MSA, DLB, LBV tissue
T6 construct: performed on frozen human brain sections from different a-synucleinopathy cases; from tissue; host or cells: frozen human brain sections (PD, PDD, MSA, DLB, LBV; NDC as controls)
Procedure: (§4) The protocol was adapted from Marquie et al., 2015. Sections were incubated with tritiated example compound 1 (Example-1 [3H-1]) or a reference Tau ligand ([3H]-Tau-Ref at 60 nM for one hour at room temperature (RT). Sections were then washed as follows: One time in ice-cold 50 mM Tris-HCl pH 7.4 buffer for one minute, two times in 70% ice-cold ethanol for one minute, one time in ice-cold 50 mM Tris-HCl pH 7.4 buffer for one minute and finally rinsed briefly in ice-cold distilled water. Sections were subsequently dried and then exposed to Ilford Nuclear Emulsion Type K5 (Agar Scientific, AGP9281) in a light-proof slide storage box. After five days, the sections were developed by immersing them successively in the following solutions: 1.) Ilford Phenisol Developer (1:5 dilution in H2O, Agar Scientific, AGP9106), 2.) Ilfostop solution (1:20 dilution in H2O, Agar Scientific, AGP9104), 3.) Ilford Hypam Fixer (1:5 dilution in H2O, Agar Scientific, AGP9183) and finally rinsed with H2O.
(§5) When indicated, immunostaining was also performed on the same section. For image acquisition, sections were mounted using ProLong Gold Antifade reagent (Invitrogen P36930) and imaged on a Panoramic150 Slide Scanner (3DHistech) with a 20× objective capturing separately brightfield and fluorescent images. […]

[8] = tested on: Tau aggregates; test: Micro-autoradiography of Example-1 [^3H-1] on AD tissue; format: binding, human; settings: AD brain tissue, compared to [3H]-Tau-Ref
Procedure: as §2

[9] = molecular target: T6, a-syn aggregates (Lewy bodies and Lewy neurites); test: High resolution micro-autoradiography of Example-4 [^3H-4] on PD tissue; format: binding; settings: 20 nM
Procedure: as §4, with “4 (Example-4 [^3H-4])” for “1 (Example-1 [3H-1])”, “([^3H]-Tau-Ref” for “([3H]-Tau-Ref”, “20” for “60”, “RT.” for “room temperature (RT).”
as §5

[10] = tested on: Tau aggregates; test: Micro-autoradiography of Example-4 [^3H-4] on AD tissue; format: binding, human; settings: AD brain tissue, compared to [^3H]-Tau-Ref
Procedure: as §4, with “4 (Example-4 [^3H-4])” for “1 (Example-1 [3H-1])”, “([^3H]-Tau-Ref” for “([3H]-Tau-Ref”, “20” for “60”, “RT.” for “room temperature (RT).”

[11] = molecular target: T1, PD brain-derived a-syn aggregates; test: Saturation binding of Example-4 [^3H-4] by micro-radiobinding; settings: PD homogenates
Procedure: PD brain-derived a-syn aggregates were spotted onto microarray slides. The slides were incubated with Example-4 [^3H-4] at increasing concentrations in the range of 1.56 nM to 80 nM. After incubation, slides were scanned by a real-time autoradiography system (BeaQuant instrument, ai4R). Quantification of the signal was performed by using the Beamage image analysis software (ai4R).

[12] = tested on: pathological a-synuclein; test: Autoradiography of Example-4 [^3H-4] in brain sections from PD, MSA and NDC donors; format: binding, human; settings: 10 nM
Procedure: as §1, with “one familial PD case (a-synuclein [SNCA] gene G51 D missense mutation), labelled as SNCA, one idiopathic” for “one”, “case, one” for “case, two PDD cases, two”, “MSA” for “MSA cases, one LBV”, “and two” for “and three”, “compound 4 (Example-4 [^3H-4])” for “compound 1 (Example-1 [^3H-1])”

Row | Kd [11] | specific binding in a-synucleinopathy tissues ([12]; MSA, familial PD, idiopathic PD) | Compound | binding site occupancy [1] | autoradiographic signal in non-demented control cases [2] | target engagement in a-synucleinopathy tissues ([2]; MSA, LBV, PDD cases) | binding to TDP-43 aggregates [3] | B max [4] | Kd [4] | B max [5] | Kd [5] | Kd ([6]; PDD and genetic PD tissue, range of both, read-out: dissociation constant (Kd)) | binding in non-diseased tissue (NDC) ([6]; autoradiography, 10 nM) | specific binding in a-synucleinopathy brain sections ([6]; autoradiography, PDD and PD tissue, compared to [3H]-a-syn-Ref at 10 nM) | target engagement on Lewy bodies and Lewy neurites (silver grains) [7] | target engagement on Tau aggregates [8] | target engagement on Lewy bodies and Lewy neurites (silver grains) [9] | target engagement on Tau aggregates [10] | target engagement on Tau aggregates ([10]; listed as Example-4 [^3H-1]) | signal in non-diseased control cases [12]
1 | – | – | [3H]c1cncc(N2Cc3nn(-c4cnc(N5CC[C@@H](F)C5)c([3H])c4)cc3C2=O)c1 [Example-1 [^3H-1]] | high and improved binding site occupancy | weak | target engagement | No accumulation of silver grains on TDP-43 aggregates; also recorded: very weak to no binding | 1104 | 11 nM | 3004 | 13 nM | 11 to 13 nM | very weak binding | improved total and excellent specific binding | Accumulation of silver grains on Lewy bodies and Lewy neurites; also recorded: strong target engagement | No accumulation of silver grains on Tau tangles; also recorded: did not display specific target engagement | – | – | – | –
2 | 21 nM | specific binding | [3H]C([3H])([3H])n1cc(N2Cc3nn(-c4ccc(N5CC[C@@H](F)C5)nc4)cc3C2=O)cn1 [Example-4 [^3H-4]] | – | – | – | – | – | – | – | – | – | – | – | – | – | Accumulation of silver grains on Lewy bodies and Lewy neurites; also recorded: strong target engagement | did not display specific target engagement | No accumulation of silver grains | very weak signal
